Legend:
Assay in all cases: BIO3-BIO1 mutant enzyme activity in the presence of herbicide, percentage inhibition (fluorometric DAPA assay)
Assay type in all cases: biochemical
Conditions in all cases: read-out: percentage inhibition
[1] = target: T1, Arabidopsis thaliana BIO3-BIO1 (BioDA) mutants (Arabidopsis thaliana, UniProt B0F481, T512V)
T1 construct: with the predicted N-terminal mitochondrial transit peptide removed; 6xHis-tag (N); thrombin cleavage site (N); made in house; host or cells: E. coli BL21 (DE3) bioA
Outline: (§1)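 Percentage inhibition compares activity at one of three herbicide concentrations against DMSO, from o-phthalaldehyde-derivatised DAPA fluorescence (ex 410, em 470 nm). Purified N-His BIO3-BIO1 variants (50 nM, E. coli-expressed) saw herbicide 10 min at 20 °C in pH 8.6 EPPS buffer, then 20 μM KAPA plus 100 μM spermidine for 75 min at 20 °C.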

[2] = target: T2, Arabidopsis thaliana BIO3-BIO1 (BioDA) mutants (Arabidopsis thaliana, UniProt B0F481, L786S)
T2 construct: with the predicted N-terminal mitochondrial transit peptide removed; 6xHis-tag (N); thrombin cleavage site (N); made in house; host or cells: E. coli BL21 (DE3) bioA
Outline: as §1

[3] = target: T3, Arabidopsis thaliana BIO3-BIO1 (BioDA) mutants (Arabidopsis thaliana, UniProt B0F481, P508T)
T3 construct: with the predicted N-terminal mitochondrial transit peptide removed; 6xHis-tag (N); thrombin cleavage site (N); made in house; host or cells: E. coli BL21 (DE3) bioA
Outline: as §1

[4] = target: T4, Arabidopsis thaliana BIO3-BIO1 (BioDA) mutants (Arabidopsis thaliana, UniProt B0F481, S509C)
T4 construct: with the predicted N-terminal mitochondrial transit peptide removed; 6xHis-tag (N); thrombin cleavage site (N); made in house; host or cells: E. coli BL21 (DE3) bioA
Outline: as §1

[5] = target: T5, Arabidopsis thaliana BIO3-BIO1 (BioDA) mutants (Arabidopsis thaliana, UniProt B0F481, P508L)
T5 construct: with the predicted N-terminal mitochondrial transit peptide removed; 6xHis-tag (N); thrombin cleavage site (N); made in house; host or cells: E. coli BL21 (DE3) bioA
Outline: as §1

[6] = target: T6, Arabidopsis thaliana BIO3-BIO1 (BioDA) mutants (Arabidopsis thaliana, UniProt B0F481, S509L)
T6 construct: with the predicted N-terminal mitochondrial transit peptide removed; 6xHis-tag (N); thrombin cleavage site (N); made in house; host or cells: E. coli BL21 (DE3) bioA
Outline: as §1

[7] = target: T7, Arabidopsis thaliana BIO3-BIO1 (BioDA) mutants (Arabidopsis thaliana, UniProt B0F481, Y511W)
T7 construct: with the predicted N-terminal mitochondrial transit peptide removed; 6xHis-tag (N); thrombin cleavage site (N); made in house; host or cells: E. coli BL21 (DE3) bioA
Outline: as §1

[8] = target: T8, Arabidopsis thaliana BIO3-BIO1 (BioDA) mutants (Arabidopsis thaliana, UniProt B0F481, V354A)
T8 construct: with the predicted N-terminal mitochondrial transit peptide removed; 6xHis-tag (N); thrombin cleavage site (N); made in house; host or cells: E. coli BL21 (DE3) bioA
Outline: as §1

[9] = target: T9, Arabidopsis thaliana BIO3-BIO1 (BioDA) mutants (Arabidopsis thaliana, UniProt B0F481, P510A)
T9 construct: with the predicted N-terminal mitochondrial transit peptide removed; 6xHis-tag (N); thrombin cleavage site (N); made in house; host or cells: E. coli BL21 (DE3) bioA
Outline: as §1

[10] = target: T10, Arabidopsis thaliana BIO3-BIO1 (BioDA) mutants (Arabidopsis thaliana, UniProt B0F481, P510E)
T10 construct: with the predicted N-terminal mitochondrial transit peptide removed; 6xHis-tag (N); thrombin cleavage site (N); made in house; host or cells: E. coli BL21 (DE3) bioA
Outline: as §1

[11] = target: T11, Arabidopsis thaliana BIO3-BIO1 (BioDA) mutants (Arabidopsis thaliana, UniProt B0F481, S509T)
T11 construct: with the predicted N-terminal mitochondrial transit peptide removed; 6xHis-tag (N); thrombin cleavage site (N); made in house; host or cells: E. coli BL21 (DE3) bioA
Outline: as §1

[12] = target: T12, Arabidopsis thaliana BIO3-BIO1 (BioDA) mutants (Arabidopsis thaliana, UniProt B0F481, Q517H)
T12 construct: with the predicted N-terminal mitochondrial transit peptide removed; 6xHis-tag (N); thrombin cleavage site (N); made in house; host or cells: E. coli BL21 (DE3) bioA
Outline: as §1

T8 sequence (B0F481 23-833 V354A): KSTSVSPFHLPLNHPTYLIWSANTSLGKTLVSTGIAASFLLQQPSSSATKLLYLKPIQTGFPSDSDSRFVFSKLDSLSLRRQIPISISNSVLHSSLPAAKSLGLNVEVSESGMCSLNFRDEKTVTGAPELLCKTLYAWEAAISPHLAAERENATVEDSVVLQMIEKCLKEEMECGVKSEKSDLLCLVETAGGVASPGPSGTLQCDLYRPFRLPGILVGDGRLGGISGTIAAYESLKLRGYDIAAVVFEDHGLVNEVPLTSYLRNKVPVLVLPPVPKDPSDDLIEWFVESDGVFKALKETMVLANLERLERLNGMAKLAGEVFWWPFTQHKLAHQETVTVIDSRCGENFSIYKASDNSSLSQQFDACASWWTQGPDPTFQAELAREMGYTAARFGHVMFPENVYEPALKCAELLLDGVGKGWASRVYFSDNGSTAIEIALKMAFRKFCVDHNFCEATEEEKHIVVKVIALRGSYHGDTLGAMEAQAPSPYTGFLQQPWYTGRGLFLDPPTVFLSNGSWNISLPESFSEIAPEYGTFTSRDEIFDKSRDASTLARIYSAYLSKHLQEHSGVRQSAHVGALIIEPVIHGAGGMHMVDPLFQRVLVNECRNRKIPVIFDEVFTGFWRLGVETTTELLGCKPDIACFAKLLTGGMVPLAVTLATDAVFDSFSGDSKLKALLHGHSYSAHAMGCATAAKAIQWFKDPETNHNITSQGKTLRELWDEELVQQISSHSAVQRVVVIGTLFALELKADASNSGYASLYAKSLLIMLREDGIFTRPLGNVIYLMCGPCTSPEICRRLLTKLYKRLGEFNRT
T12 sequence (B0F481 23-833 Q517H): as the sequence (B0F481 23-833 V354A) above, with A332V, Q495H counted along it
T11 sequence (B0F481 23-833 S509T): as the sequence (B0F481 23-833 V354A) above, with A332V, S487T counted along it
T9 sequence (B0F481 23-833 P510A): as the sequence (B0F481 23-833 V354A) above, with A332V, P488A counted along it
T7 sequence (B0F481 23-833 Y511W): as the sequence (B0F481 23-833 V354A) above, with A332V, Y489W counted along it
T4 sequence (B0F481 23-833 S509C): as the sequence (B0F481 23-833 V354A) above, with A332V, S487C counted along it
T3 sequence (B0F481 23-833 P508T): as the sequence (B0F481 23-833 V354A) above, with A332V, P486T counted along it
T6 sequence (B0F481 23-833 S509L): as the sequence (B0F481 23-833 V354A) above, with A332V, S487L counted along it
T1 sequence (B0F481 23-833 T512V): as the sequence (B0F481 23-833 V354A) above, with A332V, T490V counted along it
T10 sequence (B0F481 23-833 P510E): as the sequence (B0F481 23-833 V354A) above, with A332V, P488E counted along it
T2 sequence (B0F481 23-833 L786S): as the sequence (B0F481 23-833 V354A) above, with A332V, L764S counted along it
T5 sequence (B0F481 23-833 P508L): as the sequence (B0F481 23-833 V354A) above, with A332V, P486L counted along it

Compound	inhibition at 1 µM [1] [%]	inhibition at 1 µM [2] [%]	inhibition at 1 µM [3] [%]	inhibition at 1 µM [4] [%]	inhibition at 1 µM [5] [%]	inhibition at 1 µM [6] [%]	inhibition at 1 µM [7] [%]	inhibition at 1 µM [8] [%]	inhibition at 1 µM [9] [%]	inhibition at 1 µM [10] [%]	inhibition at 1 µM [11] [%]	inhibition at 1 µM [12] [%]	inhibition at 0.2 µM [1] [%]	inhibition at 5 µM [1] [%]	inhibition at 0.2 µM [2] [%]	inhibition at 5 µM [2] [%]	inhibition at 0.2 µM [3] [%]	inhibition at 5 µM [3] [%]	inhibition at 0.2 µM [4] [%]	inhibition at 5 µM [4] [%]	other results
CCOC(=O)c1nn(-c2ccc3c(c2)OC(F)(F)C(F)(F)O3)c2cccc(C(C)=O)c2c1=O [Compound A, ethyl 5-acetyl-4-oxo-1-(2,2,3,3-tetrafluoro-1,4-benzodioxin-6-yl)cinnoline-3-carboxylate]	58	80	55	0	34	6	57	9	4	26	77	0									
CCn1c(C)c(-c2ccc(F)cc2F)c(=O)c(C(=O)O)c1-c1ccc(Cl)c(Cl)c1 [Compound C, 2-(3,4-dichlorophenyl)-5-(2,4-difluorophenyl)-1-ethyl-6-methyl-4-oxo-pyridine-3-carboxylic acid]	81	84	54	65	80	85	85	26	28	38	50	44	51	96	26	98	23	82	30	88	inhibition at 0.2 µM [5]: 37%; inhibition at 5 µM [5]: 92%; inhibition at 0.2 µM [6]: 24%; inhibition at 5 µM [6]: 99%; inhibition at 0.2 µM [7]: 41%; inhibition at 5 µM [7]: 97%; inhibition at 0.2 µM [8]: 0%; inhibition at 5 µM [8]: 75%; inhibition at 0.2 µM [9]: 0%; inhibition at 5 µM [9]: 70%; inhibition at 0.2 µM [10]: 8%; inhibition at 5 µM [10]: 74%; inhibition at 0.2 µM [11]: 5%; inhibition at 5 µM [11]: 89%; inhibition at 0.2 µM [12]: 11%; inhibition at 5 µM [12]: 77%
CCn1c(Cn2ccc(C(F)(F)F)n2)cc(=O)c(C(=O)O)c1-c1ccc(Cl)c(Cl)c1 [Compound L, 2-(3,4-dichlorophenyl)-1-ethyl-4-oxo-6-[[3-(trifluoromethyl)pyrazol-1-yl]methyl]pyridine-3-carboxylic acid]																					inhibition at 0.01 µM [2]: 11%; inhibition at 0.075 µM [2]: 31%; inhibition at 0.5 µM [2]: 93%; inhibition at 0.01 µM [3]: 25%; inhibition at 0.075 µM [3]: 22%; inhibition at 0.5 µM [3]: 85%; inhibition at 0.01 µM [5]: 16%; inhibition at 0.075 µM [5]: 48%; inhibition at 0.5 µM [5]: 80%; inhibition at 0.01 µM [9]: 0%; inhibition at 0.075 µM [9]: 0%; inhibition at 0.5 µM [9]: 63%; inhibition at 0.01 µM [10]: 0%; inhibition at 0.075 µM [10]: 11%; inhibition at 0.5 µM [10]: 59%
CCn1c(-c2ccc(Cl)c(Cl)c2)c(C(=O)O)c(=O)c2cc(F)ccc21 [Compound M, 2-(3,4-dichlorophenyl)-1-ethyl-6-fluoro-4-oxo-quinoline-3-carboxylic acid]	77	81	44	53	55	68	67	13	14	25	69	37	57	94	33	97	20	78	21	78	inhibition at 0.2 µM [5]: 18%; inhibition at 5 µM [5]: 82%; inhibition at 0.2 µM [6]: 19%; inhibition at 5 µM [6]: 94%; inhibition at 0.2 µM [7]: 25%; inhibition at 5 µM [7]: 90%; inhibition at 0.2 µM [8]: 6%; inhibition at 5 µM [8]: 65%; inhibition at 0.2 µM [9]: 0%; inhibition at 5 µM [9]: 51%; inhibition at 0.2 µM [10]: 0%; inhibition at 5 µM [10]: 61%; inhibition at 0.2 µM [11]: 9%; inhibition at 5 µM [11]: 95%; inhibition at 0.2 µM [12]: 6%; inhibition at 5 µM [12]: 71%

— patent publication US20260226493A1, “HERBICIDE RESISTANT PLANTS” (SYNGENTA CROP PROTECTION AG, priority 2023, published 2026)
